Laboratory results: article PMC9028392, “Oleyl Conjugated Histidine-Arginine Cell-Penetrating Peptides as Promising Agents for siRNA Delivery” (Pharmaceutics, 2022)

Key:
[1] = Dynamic light scattering, hydrodynamic diameter and PDI of peptide-siRNA complexes; type: physicochemical; conditions: DLS, 25 °C, peptide-siRNA complex at N/P 40, siRNA 50 nM, HBSS, mean of three independent experiments; for Z-Ave (hydrodynamic diameter): Malvern Nano ZS Zetasizer
Excerpt: The complex of oleyl conjugated peptides and siRNA was formed through physical mixing. Appropriate volumes of oleyl conjugated peptides and siRNA solution were mixed in Hank’s balanced salt solution (HBSS) buffer to obtain the complexes. The oleyl conjugated peptide-siRNA complexes were formed due to ionic interaction between positively charged arginine residues of the conjugates and the negatively charged phosphate groups of siRNAs. […] The N to P ratio is commonly used where N represents the number of moles of ionizable nitrogen in the delivery agent. In contrast, P refers to the number of moles of phosphates present in siRNA. The ratio is calculated using the following formula. N/P=number of moles pf peptidex number of ionized nitrogen atoms/(number of moles of siRA ×48)
The peptide-siRNA complexes were characterized using the dynamic light scattering (DLS) technique. Malvern Nano ZS Zetasizer (Westborough, MA, USA) was used to determine the hydrodynamic diameter and surface charge of the complexes at 25 °C. The zeta potential of the complexes was determined at 40 V using disposable folded capillary cells (DTS1070). The calibration of the instrument was performed by transfer standard DTS 1235. The disposable cuvettes were used for determining the hydrodynamic diameter. The N/P ratio 40 was selected for performing the dynamic light scattering experiment. At this N/P ratio, the final concentration of siRNA in the complex was 50 nM whereas the concentration of oleyl-(HR)4 was 24 µM, oleyl-R1-(HR)4 was 19.20 µM, oleyl-R2-(HR)4 was 16 µM, oleyl-R3-(HR)4 was 13.71 µM, oleyl-R4-(HR)4 was 12 µM, and oleyl-R5-(HR)4 was 10.67 µM. The final volume of the complex used for performing zeta potential was 750 µL. The measurements were performed in triplicate, where each measurement consisted of 20 runs. The zeta potential values were calculated using the Smoluchowski model. All the results passed the quality standard of the instrument.
Particle size was also determined at N/P 40 with the same concentrations of siRNA and oleyl conjugated peptides as described above. The experiments were performed in triplicate on each sample with an automatic attenuator setting. The results were checked with the quality standards of the instruments and were represented as mean ± SD of three independent experiments.

[2] = tested on: MDA-MB-231 cells; test: Cellular internalization of Alexa Fluor 488-labeled siRNA by flow cytometry; type: cell-based; conditions: 24 h; for Increase in cellular uptake of siRNA compared to free siRNA: MDA-MB-231, N/P 40, Alexa-488 siRNA 50 nM, flow cytometry mean fluorescence intensity
Procedure: The cellular uptake of siRNA complexed with oleyl conjugated peptides was evaluated using flow cytometry (BD-FACSVerse; BD Biosciences, San Jose, CA, USA) in live cells. Alexa fluor 488-labeled scrambled siRNA was used for making complexes with oleyl conjugated peptides. The peptide-siRNA complexes were made at N/P 40; the final concentration of siRNA in each complex was 50 nM. The study was performed on MDA-MB-231 according to the protocol described by Mandal et al.. Briefly, approximately 500,000 cells were seeded in each well of the six-well plates and were allowed to settle for 24 h. The cells were treated with the conjugate-siRNA complexes (N/P 40) and were incubated in a humidified atmosphere of 5% CO2 and 95% air at 37 °C for 24 h. After 24 h of treatment, the cells were washed three times with HBBS and were trypsinized. The suspended cells were centrifuged for 5 min at 1000 rpm (96× g) at 4 °C, and the cells pellet was washed with HBSS three times to remove any traces of the medium. Finally, the cells were resuspended in PBS and analyzed by flow cytometer using Alexa-Fluor-488 channel to quantify the mean fluorescence intensity. The mean fluorescent intensity in the treated cells was calculated for each sample based on the calibration of the signal gated with nontreated cells, serving as a negative control. Alexa-488 labeled scrambled siRNA served as a second negative control, and lipofectamine-siRNA treated cells were used as a positive control.

[3] = tested on: STAT-3; test: STAT-3 protein silencing by peptide/STAT-3 siRNA complexes (Western blot); type: cell-based; conditions: MDA-MB-231, N/P 40, STAT-3 siRNA 50 nM, 48 h; for STAT-3 expression: GAPDH housekeeping
Procedure: STAT-3 is an essential protein overexpressed in several cancer types, including breast cancer. The silencing effect of the STAT-3 siRNA delivered via oleyl conjugated peptides was determined by checking the expression of STAT-3 in peptide-siRNA complex treated cells. Expression of STAT-3 in nontreated cells served as a negative control, whereas the commercially used transfection agent lipofectamine (20 µg/mL) complexed with STAT-3 siRNA (50 nM) served as the positive control. STAT-3 expression was evaluated by the Western blotting experiment. Approximately 500,000 MDA-MB-231 cells were seeded in T-25 flasks and incubated at 37 °C under standard growth conditions. After 24 h, the cells were treated with peptide-siRNA complexes at N/P 40 for 48 h. The final siRNA concentration at this N/P was 50 nM. After 48 h of treatment, MDA-MB-231 cell lysates were prepared according to the standard protocol using RIPA buffer; the cell lysates were then incubated on ice for 1 h, during which the tubes were sonicated for 3 min after every 10 min. Following sonication for 1 h to ensure the complete lysis of cells, the tubes were centrifuged for 15 min at 12,000 rpm (RCF = 13,870× g) at 4 °C. The supernatant from the centrifuged tubes was transferred to a fresh set of pre-cooled microtubes, and the total protein concentration was determined using […]. Briefly, 200 μL of working reagent (50:1 A:B) was added to 25 μL of standard and unknown samples in triplicate into a 96-well plate, and the sample was mixed on a plate shaker for 30 s. The plate was then incubated at 37 °C and 5% CO2 for 30 min. After half an hour of incubation, the absorbance was measured at 562 nm using a Spectra MAX M5 microplate reader. The protein in each treatment sample was quantified using the BSA standard curve. A total of 15 µg of the protein was loaded per well in a 10% Mini-PROTEAN® TGX Stain-Free. Protein gel electrophoresis was performed in buffer (0.192 M glycine, 25 mM Tris, 0.1% SDS) for 30 min at 200 V. The gel was then transferred to Mini PVDF membrane (Catalog no. 1704156) using Trans-Blot® Turbo (Bio-Rad, Hercules, CA, USA). The membrane was blocked in BSA 5% for 3 h and then incubated at 4 °C overnight with the primary antibody (1:1000 in TBS-T). The membrane was then washed with TBS-T six times (5 min each time) and was subsequently incubated with the secondary HRP-linked antibody (1:1000 in TBS-T) for 1 h, followed by the washing steps. The detection of the bands was done by ECL Detect Kit using a ChemiDoc imager (Bio-Rad, Hercules, CA, USA). The bands were quantified using Image Lab™ software of ChemiDoc imager.

[4] = tested on: MDA-MB-231 cells; test: Cellular uptake of siRNA by confocal microscopy; type: cell-based; conditions: MDA-MB-231, fixed cells, N/P 40, siRNA 50 nM, 24 h
Procedure: Confocal microscopy was used to corroborate the data obtained from flow cytometry. There have been reports for using fixed cells or live cells for imaging the cellular uptake of siRNA. We adopted the protocol of Aliabadi et al. to perform the confocal microscopy. Briefly, approximately 400,000 MDA-MB-231 cells were seeded on coverslips in 6-well plates and were allowed to settle for 24 h. After 24 h, the cells were visualized under an ordinary microscope for their health and confluency. Peptide-siRNA complexes at N/P ratio 40 were made containing a final concentration of 50 nM of siRNA, and the cells were treated with these complexes. Nontreated cells served as negative control while lipofectamine-siRNA complexes were used as a positive control. After 24 h of treatment, the cells grown on coverslips were washed 3 times with HBSS and fixed with 3.7% formaldehyde solutions solution for 30 min at room temperature. The […] of the cells were stained with Texas Red (TR) Phalloidin (Invitrogen) (1:250 in HBSS), while the nuclei of the cells were stained with 4′,6-diamidino-2-phenylindole (DAPI). Nikon A1R confocal microscope system was used to image the fixed cells at 60X objective and different filters for Alexa-488 (FITC), DAPI, and TR.

[5] = MDA-MB-231, N/P 40, siRNA 50 nM, flow cytometry, n = 3

Substance	PDI (polydispersity index) [1]	Z-Ave (hydrodynamic diameter) [1] [nm·days]	Mean fluorescent intensity compared with Alexa-488 siRNA treated cells [2, 5]	Reduction (inhibition) in STAT-3 expression [3]	STAT-3 expression [3]	Increase in cellular uptake of siRNA compared to free siRNA [2]	Green fluorescence (Alexa-488 siRNA) in confocal images [4]	Cellular uptake compared with lipofectamine [2, 5]	Cellular uptake of siRNA within the series [2, 5]	STAT-3 inhibition compared with Lipofectamine 2000 ([3]; three independent experiments)
Oleyl-(HR)4-OH	0.213	120.1	nonsignificant difference in intensity	–	–	–	–	–	–	–
Oleyl-RR-(HR)4-OH [Oleyl-R2-(HR)4]	0.217	115.6	–	~ 68%	~ 68%	–	–	–	–	–
Oleyl-RRRRR-(HR)4-OH [Oleyl-R5-(HR)4, oleyl conjugated peptide with five R residues between oleyl and (HR)4]	0.213	115.6	–	~ 80%	~ 20%	–	comparable green fluorescence	nonsignificant difference	maximum cellular uptake	comparable inhibition

More lines, main results first:

PDI (polydispersity index) [1]	Z-Ave (hydrodynamic diameter) [1] [nm·days]	Substance	Mean fluorescent intensity compared with Alexa-488 siRNA treated cells [2, 5]	Reduction (inhibition) in STAT-3 expression [3]	STAT-3 expression [3]	Increase in cellular uptake of siRNA compared to free siRNA [2]	Green fluorescence (Alexa-488 siRNA) in confocal images [4]	Cellular uptake compared with lipofectamine [2, 5]	Cellular uptake of siRNA within the series [2, 5]	STAT-3 inhibition compared with Lipofectamine 2000 ([3]; three independent experiments)
0.201	116.9	Oleyl-R-(HR)4-OH [Oleyl-R1-(HR)4]	nonsignificant difference in intensity	–	–	–	–	–	–	–
0.229	117	Oleyl-RRR-(HR)4-OH [Oleyl-R3-(HR)4]	–	~ 55%	~ 55%	~ 80 fold	–	–	–	–
0.237	115.2	Oleyl-RRRR-(HR)4-OH [Oleyl-R4-(HR)4]	–	~ 41%	~ 41%	~ 80 fold	comparable green fluorescence	–	–	–
